Tests used:
[1] = biological target: T1, MRP4 (Homo sapiens, UniProt O15439); assay: Vesicular transport inhibition assay (ABC), MRP4-mediated DHEAS transport, HEK293 membrane vesicles; format: in vitro ADME; details: positive control inhibitor 150.0 µM, DHEAS probe
T1 construct: host or cells: HEK293 (membrane vesicles)
T1 sequence (O15439 1-1325): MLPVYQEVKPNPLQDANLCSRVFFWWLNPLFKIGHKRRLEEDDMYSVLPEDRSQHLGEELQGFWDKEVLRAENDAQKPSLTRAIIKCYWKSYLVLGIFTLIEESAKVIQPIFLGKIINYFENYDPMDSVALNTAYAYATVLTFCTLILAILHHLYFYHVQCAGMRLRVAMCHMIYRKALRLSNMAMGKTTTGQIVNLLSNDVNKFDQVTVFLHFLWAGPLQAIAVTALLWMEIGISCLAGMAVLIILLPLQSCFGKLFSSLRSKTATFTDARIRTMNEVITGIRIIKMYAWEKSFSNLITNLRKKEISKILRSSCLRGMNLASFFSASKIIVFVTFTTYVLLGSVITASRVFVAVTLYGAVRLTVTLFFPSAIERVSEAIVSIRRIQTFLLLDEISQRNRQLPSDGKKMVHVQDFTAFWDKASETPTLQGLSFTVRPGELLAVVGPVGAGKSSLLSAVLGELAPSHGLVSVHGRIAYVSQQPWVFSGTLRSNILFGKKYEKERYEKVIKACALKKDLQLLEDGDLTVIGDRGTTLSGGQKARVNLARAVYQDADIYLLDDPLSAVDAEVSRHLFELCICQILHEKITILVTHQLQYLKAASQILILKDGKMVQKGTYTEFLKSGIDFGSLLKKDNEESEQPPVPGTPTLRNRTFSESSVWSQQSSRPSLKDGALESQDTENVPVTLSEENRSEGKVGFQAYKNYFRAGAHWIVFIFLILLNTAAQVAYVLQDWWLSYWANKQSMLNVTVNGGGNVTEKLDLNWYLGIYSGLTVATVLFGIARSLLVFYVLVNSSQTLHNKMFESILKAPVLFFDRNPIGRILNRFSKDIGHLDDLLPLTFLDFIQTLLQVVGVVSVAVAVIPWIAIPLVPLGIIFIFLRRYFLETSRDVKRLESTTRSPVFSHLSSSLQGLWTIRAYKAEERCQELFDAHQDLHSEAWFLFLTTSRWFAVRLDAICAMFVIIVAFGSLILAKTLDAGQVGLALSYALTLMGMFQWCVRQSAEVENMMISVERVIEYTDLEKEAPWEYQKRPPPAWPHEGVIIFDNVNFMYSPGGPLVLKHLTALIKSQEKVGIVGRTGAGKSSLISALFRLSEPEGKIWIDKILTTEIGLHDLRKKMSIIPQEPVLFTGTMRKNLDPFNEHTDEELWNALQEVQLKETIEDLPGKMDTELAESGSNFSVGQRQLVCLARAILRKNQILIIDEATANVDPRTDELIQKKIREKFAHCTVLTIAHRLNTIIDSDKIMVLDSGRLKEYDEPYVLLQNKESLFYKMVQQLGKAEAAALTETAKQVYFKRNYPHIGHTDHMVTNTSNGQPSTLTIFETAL

[2] = biological target: MDR1 (Homo sapiens, UniProt P08183)
Procedure: The incubations were carried out in the presence of 4 mM ATP or AMP to distinguish between transporter-mediated uptake and passive diffusion into the vesicles. […] Afterwards, the reaction mixtures were pre-incubated for 15 min at 37 °C for MRP1 or at 32 °C for BCRP, MDR1 and MRP4, respectively. The transporter assay was initiated through the addition of 25 μL of pre-warmed 12 mM MgATP (or 12 mM AMP in assay buffer as a background control). The reactions were quenched through the addition of 200 μL of ice-cold washing buffer and immediate filtration via glass fiber filters mounted onto a 96-well plate (filter plate). The filters were washed (5 × 200 μL of ice-cold washing buffer) and dried, and the amount of probe substrate inside the filtered vesicles was determined using LSC. The experiments were conducted in triplicate.
Calculation of ATP-dependent transport and inhibition for vesicular transport inhibition
For all wells the amount of the translocated probe substrate was determined in counts per minute (cpm).
ATP-dependent transport (pmol/mg protein/min) is calculated for each concentration using the following
𝐴𝑐𝑐𝐴𝑇𝑃 ∙ 𝑉 ∙ 𝐶𝐶 𝐴𝑐𝑐𝐴𝑀𝑃 ∙𝑉 ∙𝐶𝐶
𝐴𝑇𝑃 − 𝑑𝑒𝑝𝑒𝑛𝑑𝑒𝑛𝑡 𝑎𝑐𝑐𝑢𝑚𝑢𝑙𝑎𝑡𝑖𝑜𝑛 = ( 𝑇𝐶𝑃𝑀 𝑠𝑢𝑏) − ( 𝑇𝐶𝑃𝑀 𝑠𝑢𝑏)
• AccATP: probe substrate accumulation with ATP (cpm)
• AccAMP: probe substrate accumulation with AMP (cpm)
• Tcpm: cpm in dosing solution V: volume per well (µL)
• CCsub: probe substrate concentration (µM)
• Prot: total protein per well (mg)
• t: incubation time (min)
Relative ATP-dependent transport (%) values were calculated using the following equation:
𝑅𝑒𝑙𝑎𝑡𝑖𝑣𝑒 𝐴𝑇𝑃 − 𝑑𝑒𝑝𝑒𝑛𝑑𝑒𝑛𝑡 𝑡𝑟𝑎𝑛𝑠𝑝𝑜𝑟𝑡 (%) = 𝐴 − 𝐵 ∙ 100
• A: amount of translocated substrate in the presence of test substance (TS) and ATP
• B: amount of translocated substrate in the presence of test substance (TS) and AMP
• C: amount of translocated substrate in the presence of solvent and ATP
• D: amount of translocated substrate in the presence of solvent and AMP
Relative inhibition (%) is calculated by setting probe substrate transport in the absence of test substance as
𝑅𝑒𝑙𝑎𝑡𝑖𝑣𝑒 𝑖𝑛ℎ𝑖𝑏𝑖𝑡𝑖𝑜𝑛 (%) = 𝐴𝑐𝑐𝑆𝑝𝑒𝑐𝑖𝑓𝑖𝑐,𝑥 ∙100
• Accspecific,x: transporter specific accumulation for a given sample (pmol/mg/min)
• Accspecific,vehicle: transporter specific accumulation for a solvent control (pmol/mg/min)
Data are expressed as mean (n=3)
N-methyl quinidine (NMQ) measured in the vesicular transport inhibition assay.
Nominal ATP Relative ATP Relative
Compound concentration [µM] dependent transport dependent transport inhibition [%]
[pmol/mg/min] [% of control]
Data are expressed as mean (n=3) ± SD.

[3] = set-up: method as in PMID 37191680; details: PSMA-null mice; cited from earlier work
[4] = set-up: method as in PMID 29651569; details: within the first 24 h post injection; cited from earlier work
[5] = cited from earlier work

Chain of MDR1 (P08183 whole entry): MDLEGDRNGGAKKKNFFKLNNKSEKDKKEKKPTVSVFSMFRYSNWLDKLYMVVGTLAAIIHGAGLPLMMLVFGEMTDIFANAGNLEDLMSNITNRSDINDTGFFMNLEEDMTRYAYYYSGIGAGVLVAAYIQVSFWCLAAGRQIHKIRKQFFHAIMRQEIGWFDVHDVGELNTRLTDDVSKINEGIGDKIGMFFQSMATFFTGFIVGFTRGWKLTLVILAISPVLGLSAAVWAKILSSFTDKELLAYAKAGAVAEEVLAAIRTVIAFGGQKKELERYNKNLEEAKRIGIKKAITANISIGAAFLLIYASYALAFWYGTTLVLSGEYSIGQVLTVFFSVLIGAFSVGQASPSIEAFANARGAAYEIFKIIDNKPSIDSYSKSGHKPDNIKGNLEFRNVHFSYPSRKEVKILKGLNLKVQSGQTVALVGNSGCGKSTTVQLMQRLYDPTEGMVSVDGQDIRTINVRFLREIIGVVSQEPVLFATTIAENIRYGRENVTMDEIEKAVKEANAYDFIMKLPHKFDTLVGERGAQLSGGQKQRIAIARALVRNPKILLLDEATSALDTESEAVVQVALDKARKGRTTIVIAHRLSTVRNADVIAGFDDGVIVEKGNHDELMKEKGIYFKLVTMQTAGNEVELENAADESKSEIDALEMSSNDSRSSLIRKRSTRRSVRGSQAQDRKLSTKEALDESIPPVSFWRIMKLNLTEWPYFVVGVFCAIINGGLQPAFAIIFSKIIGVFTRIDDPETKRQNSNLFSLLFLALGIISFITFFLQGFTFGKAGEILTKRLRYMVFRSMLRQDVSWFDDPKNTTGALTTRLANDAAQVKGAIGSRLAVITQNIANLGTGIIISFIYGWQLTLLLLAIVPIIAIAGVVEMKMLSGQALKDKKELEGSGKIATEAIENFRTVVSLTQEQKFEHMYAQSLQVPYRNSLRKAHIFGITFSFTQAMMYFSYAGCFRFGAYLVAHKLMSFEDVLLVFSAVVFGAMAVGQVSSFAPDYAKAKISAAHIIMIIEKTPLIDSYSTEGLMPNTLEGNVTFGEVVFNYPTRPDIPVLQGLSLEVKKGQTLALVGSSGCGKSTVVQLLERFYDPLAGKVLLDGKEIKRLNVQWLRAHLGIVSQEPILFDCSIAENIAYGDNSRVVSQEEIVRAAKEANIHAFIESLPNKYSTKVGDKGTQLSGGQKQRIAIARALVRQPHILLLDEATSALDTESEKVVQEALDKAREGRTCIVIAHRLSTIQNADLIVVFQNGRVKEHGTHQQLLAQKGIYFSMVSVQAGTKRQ

**Q.** Which inhibition at 1.5 min, 150 µM ([1]; human, probe dehydroepiandrosterone sulfate (DHEAS), 0.5 µM, read-out: Relative inhibition) does the source give for `CN(C)C(=O)CCSC(SCCC(=O)O)c1cccc(/C=C/c2ccc3ccc(Cl)cc3n2)c1` (stereo not drawn) [MK-571, reference compound] here?
**A.** The inhibition at 1.5 min, 150 µM was 98%.

**Q.** What about the ATP dependent transport ([1]; mean (n=3) ± SD) of the same compound?
**A.** The ATP dependent transport was 256.00 ± 59.15 pmol/mg/min.

**Q.** What about the “Relative ATP dependent transport” value ([1]; mean (n=3) ± SD) of the same compound?
**A.** The value was 2.06 ± 0.48 % of control.

**Q.** Which inhibition at 1 min, 1 µM ([2]; human, probe N-methyl quinidine (NMQ), 1.0 µM) does the source give for `C/C=C/C[C@@H](C)C(=O)[C@H]1C(=O)N[C@@H](C(C)C)C(=O)N(C)CC(=O)N(C)[C@@H](CC(C)C)C(=O)N[C@@H](C(C)C)C(=O)N(C)[C@@H](CC(C)C)C(=O)N[C@@H](C)C(=O)N[C@H](C)C(=O)N(C)[C@@H](CC(C)C)C(=O)N(C)[C@@H](CC(C)C)C(=O)N(C)[C@@H](C(C)C)C(=O)N1C` [Valspodar, reference compound] here?
**A.** Its inhibition at 1 min, 1 µM is 96%.

**Q.** What about the “Relative ATP dependent transport” value ([2]; positive control inhibitor 1.00 µM, NMQ probe, mean (n=3) ± SD) of the same compound?
**A.** The value was 4.28 ± 0.62 % of control.

**Q.** Which “Uptake by healthy kidneys and SGs” value [3] does the source give for `O=C([O-])CN(CCN(CC(=O)[O-])Cc1cc(CCC(=O)NCCCCCC(=O)NCCCC[C@H](NC(=O)N[C@@H](CCC(=O)O)C(=O)O)C(=O)O)ccc1[O-])Cc1cc(CCC(=O)O)ccc1[O-].[68Ga+3].[OH3+]` [[^68Ga]Ga-PSMA-11] here?
**A.** Its value is “greatly reduced uptake”.

**Q.** Which results are given for `O=C([O-])CN1CCN(CC(=O)[O-])CCN(CC(=O)NCC2CCC(C(=O)NC(Cc3ccc4ccccc4c3)C(=O)NCCCCC(NC(=O)NC(CCC(=O)O)C(=O)O)C(=O)O)CC2)CCN(CC(=O)[O-])CC1.[177Lu+3]` (stereo not drawn) [[^177Lu]Lu-PSMA-617]?
**A.** Excreted via the renal route in urine [4]: up to 70%; Accumulation in the kidneys ([5]; kidneys): 0.5–0.6 Gy/GBq injected dose; Accumulation in the salivary glands ([5]; salivary glands (SGs)): up to 1 Gy/GBq injected dose
